Publication PMC6151383 (Molecules : A Journal of Synthetic Chemistry and Natural …, 2017)
In brackets after ≈: the same amount, converted by molar mass. Read-outs that look alike come from different tables or passages of the source.

What was measured:
[1] = system: Lichtheimia corymbifera 272; experiment: Antifungal microdilution broth MIC, L. corymbifera; assay type: cell-based; details: Lichtheimia corymbifera, 272; 48 h incubation; read-out: MIC LC 48 h
[2] = system: ESBL-positive Klebsiella pneumoniae J 14368/08
[3] = system: Pseudomonas aeruginosa CCM 1961; experiment: Antibacterial microdilution broth MIC, P. aeruginosa; assay type: cell-based; details: Pseudomonas aeruginosa, CCM1961; 48 h incubation; read-out: MIC PA 48 h
[4] = system: Trichophyton interdigitale 445; experiment: Antifungal microdilution broth MIC, T. interdigitale; assay type: cell-based
[5] = system: Klebsiella pneumoniae D 11750/08
[6] = system: Mycobacterium kansasii 235/80; experiment: In vitro antimycobacterial MIC, M. kansasii 235/80; assay type: cell-based
Candida krusei E28 = experiment: Antifungal microdilution broth MIC, C. krusei; assay type: cell-based; details: Pichia kudriavzevii
[7] = system: yeasts (Candida sp., T. asahii); experiment: Antifungal activity against yeasts; assay type: cell-based; details: read-out: MIC for yeasts
[8] = system: Staphylococcus epidermidis H 6966/08; experiment: Antibacterial microdilution broth MIC, S. epidermidis; assay type: cell-based; details: Staphylococcus epidermidis
[9] = system: Escherichia coli CCM 4517; experiment: Antibacterial microdilution broth MIC, E. coli; assay type: cell-based; details: Escherichia coli, CCM4517; 48 h incubation; read-out: MIC EC 48 h
[10] = system: Candida albicans ATCC 44859; experiment: Antifungal microdilution broth MIC, C. albicans; assay type: cell-based; details: ATCC44859, 48 h incubation, read-out: MIC CA 48 h
M. kansasii 6509/96 = experiment: In vitro antimycobacterial MIC, M. kansasii clinical isolate; assay type: cell-based; details: Mycobacterium kansasii
Trichosporon asahii 1188 = experiment: Antifungal microdilution broth MIC, T. asahii; assay type: cell-based
[11] = system: Mycobacterium avium 330/88; experiment: In vitro antimycobacterial MIC, M. avium; assay type: cell-based
Candida glabrata 20/I = experiment: Antifungal microdilution broth MIC, C. glabrata; assay type: cell-based; details: Nakaseomyces glabratus, 48 h incubation, read-out: MIC CG 48 h
[12] = system: Enterococcus faecalis J 14365/08; experiment: Antibacterial microdilution broth MIC, E. faecalis; assay type: cell-based; details: Enterococcus faecalis, J14365/08; 48 h incubation; read-out: MIC EF 48 h
[13] = system: Staphylococcus aureus CCM 4516/08; experiment: Antibacterial microdilution broth MIC, S. aureus; assay type: cell-based; details: Staphylococcus aureus
[14] = system: Aspergillus fumigatus 231; experiment: Antifungal microdilution broth MIC, A. fumigatus; assay type: cell-based
Candida tropicalis 156 = experiment: Antifungal microdilution broth MIC, C. tropicalis; assay type: cell-based
[15] = system: Mycobacterium tuberculosis 331/88 (H37Rv); experiment: In vitro antimycobacterial MIC, M. tuberculosis; assay type: cell-based
Candida sp. = experiment: Selectivity index for Candida sp. (IC50 HepG2/MIC); assay type: cell-based; details: all Candida species
M. tuberculosis and NTM = experiment: Antimycobacterial activity, panel; assay type: cell-based; details: Mycobacterium tuberculosis; range over all four mycobacterial strains and incubation times; read-out: MIC, M. tuberculosis and NTM
[16] = Trichophyton interdigitale, 445, 72 h incubation, read-out: MIC TI 72 h
[17] = Trichophyton interdigitale, 445, 120 h incubation, read-out: MIC TI 120 h
[18] = 235/80, 168 h, 7 d incubation, read-out: MIC M. kansasii 235/80 7 d
[19] = 235/80, 336 h, 14 d incubation, read-out: MIC M. kansasii 235/80 14 d
[20] = 235/80, 504 h, 21 d incubation, read-out: MIC M. kansasii 235/80 21 d
[21] = E28, 48 h incubation, read-out: MIC CK 48 h
[22] = H6966/08, 48 h incubation, read-out: MIC SE 48 h
[23] = H6966/08, incubation time not given, read-out: MIC for S. epidermidis
[24] = 6509/96, 168 h, 7 d incubation, read-out: MIC M. kansasii 6509/96 7 d
[25] = 6509/96, 336 h, 14 d incubation, read-out: MIC M. kansasii 6509/96 14 d
[26] = 6509/96, 504 h, 21 d incubation, read-out: MIC M. kansasii 6509/96 21 d
[27] = Trichosporon asahii, 1188, 48 h incubation, read-out: MIC TA 48 h
[28] = 330/88, 336 h, 14 d incubation, read-out: MIC M. avium 330/88 14 d
[29] = 330/88, 504 h, 21 d incubation, read-out: MIC M. avium 330/88 21 d
[30] = CCM4516, 48 h incubation, read-out: MIC SA 48 h
[31] = Candida tropicalis, 156, 48 h incubation, read-out: MIC CT 48 h
[32] = 336 h, 14 d incubation, read-out: MIC Mtb. 331/88 14 d
[33] = 504 h, 21 d incubation, read-out: MIC Mtb. 331/88 21 d
[34] = Aspergillus fumigatus, 231, 48 h incubation, read-out: MIC AF 48 h

Row | SMILES | MIC [1] [µM] | MIC KP-E 24 h [2] [µM] | MIC KP-E 48 h [2] [µM] | MIC [3] [µM] | MIC KP 24 h [5] [µM] | MIC KP 48 h [5] [µM] | MIC [6, 18] [µM] | MIC [6, 19] [µM] | MIC [6, 20] [µM] | MIC [9] [µM] | MIC [10] [µM] | MIC (M. kansasii 6509/96; [24]) [µM] | MIC (M. kansasii 6509/96; [25]) [µM] | MIC (M. kansasii 6509/96; [26]) [µM] | MIC [11, 28] [µM] | MIC [11, 29] [µM] | MIC (Candida glabrata 20/I) [µM] | MIC [12] [µM] | MIC [15, 32] [µM] | MIC [15, 33] [µM] | other results
1 | O=S(=O)(Nc1ncccn1)c1ccc(N=Cc2cc(O)ccc2O)cc1 [Compound 2i, 4-[(2,5-Dihydroxybenzylidene)amino]-N-(pyrimidin-2-yl)benzenesulfonamide] | 500 (≈ 185 µg/mL) | >500 | >500 | 500 (≈ 185 µg/mL) | >500 | >500 | 62.5 (≈ 23.1 µg/mL) | 125 (≈ 46.3 µg/mL) | 125 (≈ 46.3 µg/mL) | 500 (≈ 185 µg/mL) | 15.6 (≈ 5.79 µg/mL) | 62.5 (≈ 23.1 µg/mL) | 125 (≈ 46.3 µg/mL) | 125 (≈ 46.3 µg/mL) | 500 (≈ 185 µg/mL) | 1000 (≈ 370 µg/mL) | 15.6 (≈ 5.79 µg/mL) | 250 (≈ 92.6 µg/mL) | 125 (≈ 46.3 µg/mL) | 125 (≈ 46.3 µg/mL) | MIC [4, 16]: 1.95 µM (≈ 0.722 µg/mL); MIC [4, 17]: 1.95 µM (≈ 0.722 µg/mL); MIC (Candida krusei E28; [21]): 31.2 µM (≈ 11.6 µg/mL); MIC ([7]; range over Candida sp. and T. asahii): 15.6 to 31.2 µM (≈ 5.79 to 11.6 µg/mL); MIC [8, 22]: 15.6 µM (≈ 5.79 µg/mL); MIC [8, 23]: 15.6 µM (≈ 5.79 µg/mL); MIC (Trichosporon asahii 1188; [27]): 15.6 µM (≈ 5.79 µg/mL); MIC ([13]; CCM 4516 / MRSA, S. aureus incl. MRSA, incubation time not given, read-out: MIC for S. aureus): 31.2 µM (≈ 11.6 µg/mL); MIC [13, 30]: 31.2 µM (≈ 11.6 µg/mL); MIC ([14]; Aspergillus fumigatus, 231, 24 h, read-out: MIC AF 24 h): 125 µM (≈ 46.3 µg/mL); MIC ([14]; Aspergillus fumigatus, 231, 48 h, read-out: MIC AF 48 h): 125 µM (≈ 46.3 µg/mL); MIC (Candida tropicalis 156; [31]): 15.6 µM (≈ 5.79 µg/mL)
2 | O=S(=O)(Nc1ncccn1)c1ccc(N=Cc2cc(Cl)cc(Br)c2O)cc1 [Compound 2n, 4-[(3-Bromo-5-chloro-2-hydroxybenzylidene)amino]-N-(pyrimidin-2-yl)benzenesulfonamide] | 500 (≈ 234 µg/mL) | 500 (≈ 234 µg/mL) | 500 (≈ 234 µg/mL) | > 500 | >500 | >500 | 125 (≈ 58.5 µg/mL) | 125 (≈ 58.5 µg/mL) | 250 (≈ 117 µg/mL) | 500 (≈ 234 µg/mL) | 31.2 (≈ 14.6 µg/mL) | 62.5 (≈ 29.2 µg/mL) | 125 (≈ 58.5 µg/mL) | 125 (≈ 58.5 µg/mL) | 250 (≈ 117 µg/mL) | 500 (≈ 234 µg/mL) | 31.2 (≈ 14.6 µg/mL) | > 500 | 125 (≈ 58.5 µg/mL) | 125 (≈ 58.5 µg/mL) | MIC ([4]; Trichophyton interdigitale, 445, 72 h, read-out: MIC TI 72 h): 62.5 µM (≈ 29.2 µg/mL); MIC ([4]; Trichophyton interdigitale, 445, 120 h, read-out: MIC TI 120 h): 62.5 µM (≈ 29.2 µg/mL); MIC (Candida krusei E28; E28, 24 h, read-out: MIC CK 24 h): 62.5 µM (≈ 29.2 µg/mL); MIC (Candida krusei E28; E28, 48 h, read-out: MIC CK 48 h): 62.5 µM (≈ 29.2 µg/mL); MIC [7]: 31.2 to 125 µM (≈ 14.6 to 58.5 µg/mL); MIC [8, 22]: 31.2 µM (≈ 14.6 µg/mL); MIC (Trichosporon asahii 1188; Trichosporon asahii, 1188, 24 h, read-out: MIC TA 24 h): 62.5 µM (≈ 29.2 µg/mL); MIC (Trichosporon asahii 1188; Trichosporon asahii, 1188, 48 h, read-out: MIC TA 48 h): 62.5 µM (≈ 29.2 µg/mL); MIC [13, 30]: 31.2 µM (≈ 14.6 µg/mL); MIC [14, 34]: 250 µM (≈ 117 µg/mL); MIC (Candida tropicalis 156; Candida tropicalis, 156, 24 h, read-out: MIC CT 24 h): 62.5 µM (≈ 29.2 µg/mL); MIC (Candida tropicalis 156; Candida tropicalis, 156, 48 h, read-out: MIC CT 48 h): 62.5 µM (≈ 29.2 µg/mL)
3 | Cc1ccc(O)c(C=Nc2ccc(S(=O)(=O)Nc3ncccn3)cc2)c1 [Compound 2g, 4-[(2-Hydroxy-5-methylbenzylidene)amino]-N-(pyrimidin-2-yl)benzenesulfonamide] | > 500 | >250 | >250 | > 250 | >250 | >250 | 125 (≈ 46.1 µg/mL) | 125 (≈ 46.1 µg/mL) | 250 (≈ 92.1 µg/mL) | > 250 | > 500 | 62.5 (≈ 23 µg/mL) | 62.5 (≈ 23 µg/mL) | 125 (≈ 46.1 µg/mL) | 500 (≈ 184 µg/mL) | 1000 (≈ 368 µg/mL) | > 500 | > 250 | 125 (≈ 46.1 µg/mL) | 125 (≈ 46.1 µg/mL) | SI for TI ([4]; SI = IC50 (HepG2)/MIC, Trichophyton interdigitale): inactive; MIC [4, 16]: > 500 µM; MIC [4, 17]: > 500 µM; SI for Candida sp. (Candida sp.): inactive; MIC (Candida krusei E28; [21]): > 500 µM; MIC ([8]; H6966/08, 24 h, read-out: MIC SE 24 h): 125 µM (≈ 46.1 µg/mL); MIC ([8]; H6966/08, 48 h, read-out: MIC SE 48 h): 125 µM (≈ 46.1 µg/mL); MIC (Trichosporon asahii 1188; [27]): > 500 µM; MIC [13, 30]: > 250 µM; MIC [14, 34]: > 500 µM; MIC (Candida tropicalis 156; [31]): > 500 µM
4 | O=[N+]([O-])c1ccc(C=Nc2ccc(S(=O)(=O)Nc3ncccn3)cc2)o1 [Compound 2q, 4-{[(5-Nitrofuran-2-yl)methylene]amino}-N-(pyrimidin-2-yl)benzenesulfonamide] | > 500 | 500 (≈ 187 µg/mL) | 500 (≈ 187 µg/mL) | 250 (≈ 93.3 µg/mL) | 500 (≈ 187 µg/mL) | 500 (≈ 187 µg/mL) | 125 (≈ 46.7 µg/mL) | 250 (≈ 93.3 µg/mL) | 250 (≈ 93.3 µg/mL) | > 500 | 250 (≈ 93.3 µg/mL) | 62.5 (≈ 23.3 µg/mL) | 62.5 (≈ 23.3 µg/mL) | 125 (≈ 46.7 µg/mL) | 500 (≈ 187 µg/mL) | 500 (≈ 187 µg/mL) | 250 (≈ 93.3 µg/mL) | > 500 | 125 (≈ 46.7 µg/mL) | 125 (≈ 46.7 µg/mL) | MIC [4, 16]: 250 µM (≈ 93.3 µg/mL); MIC [4, 17]: 250 µM (≈ 93.3 µg/mL); MIC (Candida krusei E28; [21]): 250 µM (≈ 93.3 µg/mL); MIC [8, 22]: 31.2 µM (≈ 11.7 µg/mL); MIC [8, 23]: 31.2 µM (≈ 11.7 µg/mL); MIC (Trichosporon asahii 1188; [27]): 500 µM (≈ 187 µg/mL); MIC (M. tuberculosis and NTM): ≥ 62.5 µM; MIC ([13]; CCM4516, 24 h, read-out: MIC SA 24 h): 125 µM (≈ 46.7 µg/mL); MIC ([13]; CCM4516, 48 h, read-out: MIC SA 48 h): 125 µM (≈ 46.7 µg/mL); MIC [14, 34]: 500 µM (≈ 187 µg/mL); MIC (Candida tropicalis 156; [31]): 250 µM (≈ 93.3 µg/mL)
